Measured values taken from ChEMBL document CHEMBL5126595, “Identification and anti-tumor evaluation of 3-acyl-indol-based 2,4-diarylaminopyrimidine analogues as potent ALK inhibitors capable of overcoming drug-resistant mutants” (Eur J Med Chem, 2022).
The source made the active and inactive calls. The rule behind the calls is not given here.

How the values were obtained:
[1] = target: Epidermal growth factor receptor (Homo sapiens, UniProt P00533); assay: Inhibition of human EGFR (669 to 1210 residues) cytoplasmic domain expressed in baculovirus infected Sf21 cells incubated for 1 hrs in the presence of ATP by mobility shift assay
[2] = target: ALK tyrosine kinase receptor (Homo sapiens, UniProt Q9UM73, L1196M); assay: Inhibition of N-terminal GST-tagged human ceritinib-resistant ALK L1196M mutant (1058 to 1620 residues) cytoplasmic domain expressed in baculovirus infected Sf21 cells incubated for 1 hrs in the presence of ATP by mobility shift assay
NCI-H2228 [3] = assay: Induction of apoptosis in human NCI-H2228 cells assessed as necrotic cells at 50 nM incubated for 48 hrs by AnnexinV-FITC/propidium iodide staining based flow cytometry analysis (reference value: 0.55 %); assay type: functional
[4] = Antiproliferative activity […] EML4-ALK-G1202R cells assessed as inhibition of cell growth incubated for 72 hrs by MTT assay; assay type: functional, cell-based
NCI-H3122 = assay: Antiproliferative activity against EML4-ALK positive human NC-H3122 cells assessed as inhibition of cell growth incubated for 72 hrs by MTT assay; assay type: functional, cell-based; settings: NCI-H3122, 72 h
NCI-H1581 = assay: Antiproliferative activity against human NC-H1581 cells assessed as inhibition of cell growth incubated for 72 hrs by MTT assay; assay type: functional, cell-based; settings: NCI-H1581, 72 h
[5] = Antiproliferative activity against human HELF cells assessed as inhibition of cell growth incubated for 72 hrs by MTT assay; assay type: toxicity, cell-based
[6] = Metabolic stability in Sprague-Dawley rat liver microsomes assessed as half-life at 10 uM preincubated for 5 mins in the presence of NADPH followed by microsomal addition and measured upto 60 mins by HPLC analysis; assay type: ADME, Microsome; settings: time < 65 min
[7] = Metabolic stability in Sprague-Dawley rat liver microsomes assessed as parent compound remaining preincubated for 5 mins in the presence of NADPH followed by microsomal addition and measured upto 60 mins by HPLC analysis; assay type: ADME, Microsome; settings: time < 65 min, read-out: Stability
[8] = Metabolic stability in Sprague-Dawley rat liver microsomes assessed as parent compound remaining measured upto 60 mins by HPLC analysis; assay type: ADME, Microsome; settings: read-out: Stability
[9] = target: T1, ALK tyrosine kinase receptor (Homo sapiens, UniProt Q9UM73); assay: Inhibition of ALK downstream signalling in human NCI-H2228 cells assessed as reduction in AKT level measured after 24 hrs by Western blot analysis; assay type: cell-based; settings: dose 25-100 nM, DDE = dose-dependent effect
[10] = target: T1, ALK tyrosine kinase receptor; assay: Inhibition of ALK downstream signalling in human NCI-H2228 cells assessed as reduction in ERK level measured after 24 hrs by Western blot analysis; assay type: cell-based; settings: dose 25-100 nM, DDE = dose-dependent effect
NCI-H2228 [11] = assay: Inhibition of cell migration in human NCI-H2228 cells measured at 24 to 48 hrs by inverted microscopic based cell scratch assay; assay type: functional; settings: dose 2.5-10 nM, time 24-48 hrs, DDE = dose-dependent effect
[12] = Oral bioavailability in Sprague-Dawley rat at 10 mg/kg by LC-MS/MS analysis; assay type: ADME, organism-based; settings: in vivo
NCI-H2228 [13] = assay: Induction of apoptosis in human NCI-H2228 cells assessed as orange red fluorescence at 25 to 100 nM incubated for 48 hrs by AO/EB staining based fluorescence microscopic analysis; assay type: functional, cell-based; settings: dose 25-100 nM
NCI-H2228 [14] = assay: Induction of apoptosis in human NCI-H2228 cells assessed as chromatin condensation by measuring brilliant blue fluorescence at 25 to 100 nM incubated for 48 hrs by Hoechst 33342 staining based fluorescence microscopic analysis; assay type: functional, cell-based; settings: dose 25-100 nM
NCI-H2228 [15] = assay: Induction of apoptosis in human NCI-H2228 cells assessed as nuclei fragmentation by measuring brilliant blue fluorescence at 25 to 100 nM incubated for 48 hrs by Hoechst 33342 staining based fluorescence microscopic analysis; assay type: functional, cell-based; settings: dose 25-100 nM
NCI-H2228 [16] = assay: Induction of apoptosis in human NCI-H2228 cells assessed as viable cells at 50 nM incubated for 48 hrs by AnnexinV-FITC/propidium iodide staining based flow cytometry analysis (reference value: 92.3 %); assay type: functional; settings: read-out: Activity
NCI-H2228 [17] = assay: Induction of apoptosis in human NCI-H2228 cells assessed as early apoptotic cells at 50 nM incubated for 48 hrs by AnnexinV-FITC/propidium iodide staining based flow cytometry analysis (reference value: 2.45 %); assay type: functional
NCI-H2228 [18] = assay: Induction of apoptosis in human NCI-H2228 cells assessed as late apoptotic cells at 25 nM incubated for 48 hrs by AnnexinV-FITC/propidium iodide staining based flow cytometry analysis (reference value: 4.72 %); assay type: functional
NCI-H2228 [19] = assay: Induction of apoptosis in human NCI-H2228 cells assessed as necrotic cells at 25 nM incubated for 48 hrs by AnnexinV-FITC/propidium iodide staining based flow cytometry analysis (reference value: 0.55 %); assay type: functional
NCI-H2228 [20] = assay: Induction of apoptosis in human NCI-H2228 cells assessed as early apoptotic cells at 100 nM incubated for 48 hrs by AnnexinV-FITC/propidium iodide staining based flow cytometry analysis (reference value: 2.45 %); assay type: functional
NCI-H2228 [21] = assay: Induction of apoptosis in human NCI-H2228 cells assessed as late apoptotic cells at 100 nM incubated for 48 hrs by AnnexinV-FITC/propidium iodide staining based flow cytometry analysis (reference value: 4.72 %); assay type: functional
NCI-H2228 [22] = assay: Induction of apoptosis in human NCI-H2228 cells assessed as total apoptotic cells at 50 nM incubated for 48 hrs by AnnexinV-FITC/propidium iodide staining based flow cytometry analysis; assay type: functional
NCI-H2228 [23] = assay: Induction of apoptosis in human NCI-H2228 cells assessed as total apoptotic cells at 100 nM incubated for 48 hrs by AnnexinV-FITC/propidium iodide staining based flow cytometry analysis; assay type: functional
NCI-H2228 [24] = assay: Induction of cell cycle arrest in human NCI-H2228 cells assessed as decrease in S phase cells at 25 nM incubated for 48 hrs by PI/RNase staining based flow cytometry analysis (reference value: 34.90 %); assay type: functional; parameters: scale not given: the % may be the effect or the level left
NCI-H2228 [25] = assay: Induction of cell cycle arrest in human NCI-H2228 cells assessed as increase in G1 phase cells at 50 nM incubated for 48 hrs by PI/RNase staining based flow cytometry analysis (reference value: 49.72 %); assay type: functional
NCI-H2228 [26] = assay: Induction of cell cycle arrest in human NCI-H2228 cells assessed as increase in G1 phase cells at 100 nM incubated for 48 hrs by PI/RNase staining based flow cytometry analysis (reference value: 49.72 %); assay type: functional
NCI-H2228 [27] = assay: Induction of cell cycle arrest in human NCI-H2228 cells assessed as decrease in G2 phase cells at 100 nM incubated for 48 hrs by PI/RNase staining based flow cytometry analysis (reference value: 15.38 %); assay type: functional; parameters: scale not given: the % may be the effect or the level left
[28] = Volume of distribution at steady state in Sprague-Dawley rat at 2 mg/kg, iv by LC-MS/MS analysis; assay type: ADME, organism-based; settings: in vivo, read-out: Vdss
MCF7 = assay: cells; settings: Homo sapiens, MCF7, 72 h
Description: Antiproliferative activity against human MCF7 cells assessed as inhibition of cell growth incubated for 72 hrs by MTT assay

MDA-MB-231 = assay: cells; settings: Homo sapiens, MDA-MB-231, 72 h
HT-29 = assay: cells; settings: Homo sapiens, HT-29, 72 h
Description: Antiproliferative activity against human HT-29 cells assessed as inhibition of cell growth incubated for 72 hrs by MTT assay

T1 sequence (Q9UM73 19-1620 limits assumed): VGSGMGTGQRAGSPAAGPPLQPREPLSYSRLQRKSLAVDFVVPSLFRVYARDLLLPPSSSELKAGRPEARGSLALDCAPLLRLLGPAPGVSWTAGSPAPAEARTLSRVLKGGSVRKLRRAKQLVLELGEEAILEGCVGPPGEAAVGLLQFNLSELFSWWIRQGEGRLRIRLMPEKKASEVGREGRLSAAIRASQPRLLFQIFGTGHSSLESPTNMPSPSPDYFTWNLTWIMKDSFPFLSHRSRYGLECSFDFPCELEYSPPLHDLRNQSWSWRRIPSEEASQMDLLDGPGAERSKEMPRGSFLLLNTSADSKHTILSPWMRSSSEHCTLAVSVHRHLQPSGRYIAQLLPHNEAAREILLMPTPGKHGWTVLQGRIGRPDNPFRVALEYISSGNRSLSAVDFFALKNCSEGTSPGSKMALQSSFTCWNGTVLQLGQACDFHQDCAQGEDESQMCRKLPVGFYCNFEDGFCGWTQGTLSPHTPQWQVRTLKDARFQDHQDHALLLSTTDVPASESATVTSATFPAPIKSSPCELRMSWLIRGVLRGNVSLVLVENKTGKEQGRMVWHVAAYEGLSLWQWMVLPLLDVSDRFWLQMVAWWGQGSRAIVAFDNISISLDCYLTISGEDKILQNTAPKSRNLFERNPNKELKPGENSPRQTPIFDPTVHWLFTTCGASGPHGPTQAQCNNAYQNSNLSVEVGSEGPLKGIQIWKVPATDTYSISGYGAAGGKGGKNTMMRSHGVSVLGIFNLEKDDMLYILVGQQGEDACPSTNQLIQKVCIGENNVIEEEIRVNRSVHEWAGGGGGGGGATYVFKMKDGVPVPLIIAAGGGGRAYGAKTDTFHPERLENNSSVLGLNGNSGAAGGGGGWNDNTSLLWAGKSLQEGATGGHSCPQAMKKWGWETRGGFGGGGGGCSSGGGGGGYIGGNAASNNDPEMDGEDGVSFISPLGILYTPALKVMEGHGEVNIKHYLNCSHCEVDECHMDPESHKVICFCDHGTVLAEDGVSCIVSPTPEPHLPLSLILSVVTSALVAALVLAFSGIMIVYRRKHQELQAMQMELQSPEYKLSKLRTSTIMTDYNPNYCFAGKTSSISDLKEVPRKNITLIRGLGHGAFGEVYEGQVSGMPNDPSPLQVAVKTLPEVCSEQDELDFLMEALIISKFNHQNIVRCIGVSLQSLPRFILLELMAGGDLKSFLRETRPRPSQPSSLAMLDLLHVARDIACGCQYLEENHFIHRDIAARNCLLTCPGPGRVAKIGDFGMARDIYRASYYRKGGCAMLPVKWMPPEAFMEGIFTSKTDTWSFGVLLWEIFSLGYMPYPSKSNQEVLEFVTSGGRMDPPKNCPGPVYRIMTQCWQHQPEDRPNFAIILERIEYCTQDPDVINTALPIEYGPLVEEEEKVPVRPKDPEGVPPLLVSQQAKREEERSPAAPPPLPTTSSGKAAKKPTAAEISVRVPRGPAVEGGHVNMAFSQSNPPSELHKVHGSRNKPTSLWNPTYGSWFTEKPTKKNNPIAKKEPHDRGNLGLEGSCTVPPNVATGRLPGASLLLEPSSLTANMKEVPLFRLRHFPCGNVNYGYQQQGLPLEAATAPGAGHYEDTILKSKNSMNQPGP
Chain of Epidermal growth factor receptor (P00533 whole entry, the tested form may be a part): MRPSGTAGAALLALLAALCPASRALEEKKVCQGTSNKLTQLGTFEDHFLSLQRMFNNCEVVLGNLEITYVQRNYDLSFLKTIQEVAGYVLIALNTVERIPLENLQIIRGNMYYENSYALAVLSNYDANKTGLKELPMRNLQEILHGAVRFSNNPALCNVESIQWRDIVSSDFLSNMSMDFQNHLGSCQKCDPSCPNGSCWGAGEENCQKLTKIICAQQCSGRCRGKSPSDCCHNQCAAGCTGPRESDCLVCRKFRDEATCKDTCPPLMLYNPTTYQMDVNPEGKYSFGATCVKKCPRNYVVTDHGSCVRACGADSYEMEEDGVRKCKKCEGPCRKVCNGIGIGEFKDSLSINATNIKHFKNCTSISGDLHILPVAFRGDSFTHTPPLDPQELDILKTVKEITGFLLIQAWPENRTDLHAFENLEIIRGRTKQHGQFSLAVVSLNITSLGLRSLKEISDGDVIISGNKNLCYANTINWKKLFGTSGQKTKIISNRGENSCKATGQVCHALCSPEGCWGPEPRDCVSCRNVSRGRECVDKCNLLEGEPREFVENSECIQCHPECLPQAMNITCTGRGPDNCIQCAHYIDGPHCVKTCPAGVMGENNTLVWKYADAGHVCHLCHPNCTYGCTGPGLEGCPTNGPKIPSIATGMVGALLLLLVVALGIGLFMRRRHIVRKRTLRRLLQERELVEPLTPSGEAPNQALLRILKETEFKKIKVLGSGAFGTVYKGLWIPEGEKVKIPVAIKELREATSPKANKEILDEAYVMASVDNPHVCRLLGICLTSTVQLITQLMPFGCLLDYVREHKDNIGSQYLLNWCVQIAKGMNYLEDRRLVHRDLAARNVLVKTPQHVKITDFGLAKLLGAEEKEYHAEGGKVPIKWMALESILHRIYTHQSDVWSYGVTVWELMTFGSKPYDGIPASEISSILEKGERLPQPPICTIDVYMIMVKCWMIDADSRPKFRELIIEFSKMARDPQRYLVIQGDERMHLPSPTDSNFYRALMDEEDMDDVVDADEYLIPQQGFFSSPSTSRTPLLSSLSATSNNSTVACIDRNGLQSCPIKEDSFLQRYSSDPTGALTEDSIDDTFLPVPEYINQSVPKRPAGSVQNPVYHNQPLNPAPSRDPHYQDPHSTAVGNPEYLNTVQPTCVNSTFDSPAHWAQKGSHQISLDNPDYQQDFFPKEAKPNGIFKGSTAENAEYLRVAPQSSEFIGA
Chain of ALK tyrosine kinase receptor (Homo sapiens, UniProt Q9UM73, L1196M) (Q9UM73 19-1620 L1196M limits assumed): as the sequence (Q9UM73 19-1620 limits assumed) above, with L1178M counted along it

CNC(=O)c1ccccc1Nc1nc(Nc2ccc3c(C(=O)N(C)C)c(C)[nH]c3c2)ncc1Cl
IC50 [1]: > 1000 nM | IC50 [2]: 3.7 nM | Activity (NCI-H2228 [3]): 1.66% | IC50 [4]: 15 nM | IC50 (NCI-H3122): 27 nM | IC50 (NCI-H1581): 957 nM | IC50 at 72 h [5]: > 10000 nM | half-life at 10 µM [6]: 36.2 min | remaining at 1 h [7]: 29.7% | remaining at 1 h [8]: 90% | inhibition [9]: Dde | inhibition [10]: Dde | inhibition (NCI-H2228 [11]): Dde | bioavailability [12]: 38.2% | Activity (NCI-H2228 [13]): Active | Activity (NCI-H2228 [14]): Active | Activity (NCI-H2228 [15]): Active | viability at 0.05 µM (NCI-H2228 [16]): 74.4% | Activity (NCI-H2228 [17]): 7.44% | Activity (NCI-H2228 [18]): 10.5% | Activity (NCI-H2228 [19]): 1.68% | Activity (NCI-H2228 [20]): 8.7% | Activity (NCI-H2228 [21]): 23% | Activity (NCI-H2228 [22]): 23.94% | Activity (NCI-H2228 [23]): 31.7% | Activity (NCI-H2228 [24]): 34.73% | Activity (NCI-H2228 [25]): 54.44% | Activity (NCI-H2228 [26]): 58.51% | Activity (NCI-H2228 [27]): 12.18% | Vd [28]: 7.9 L/kg | IC50 (MCF7): 2160 nM | IC50 (MDA-MB-231): 1880 nM | IC50 (HT-29): 2010 nM
